The values that follow come from PubChem BioAssay AID651853 (NMMLSC, 2012).

What is called EC50 is the concentration giving half of the maximal effect.

In the assay the test system is AM2.2 cells FAP-GPR32, fluorogen binding, flow cytometry MCF. Nature of the assay: fluorogen binding to FAP-tagged GPR32, dose response, counter-screen for beta2AR agonist internalization project, human GPR32, AM2.2 cells, powder set 3 (AID 651853). (Counterscreens check selectivity or assay interference.)
In the case of `Cc1ccc(NC(=O)C(c2ccc(Cl)cc2)N2CCOCC2)cc1` (stereo not given), the EC50 was 920 nM.
As for `C=CCn1c(CCNC(=O)c2cccs2)nnc1SCC(=O)c1ccc(Br)cc1`, the 50% effective concentration (EC50) is 10 nM.
`Clc1cccc(-c2nnc(SCc3nc4ccccc4[nH]3)n2Cc2ccco2)c1`: the EC50 is 7180 nM.
As for `CC(=O)Nc1ccc(S(=O)(=O)N2CCC(Oc3ccc(-n4cnnn4)cc3)CC2)cc1`, the figure is 40 nM; as for `Clc1ccc(OCc2nnc(SCc3nc4ccccc4[nH]3)n2Cc2ccco2)cc1`, 10 nM.
`CC(C)Cc1nc2sc3c(NCc4ccco4)ncnc3c2c2c1COC(C)(C)C2`: the EC50 is 20 nM.
As for `Cc1ccccc1N1CCN(c2ncnc3c2cnn3Cc2ccc(Cl)cc2)CC1`, the figure is 2170 nM; as for `Cn1c(N2CCN(c3ccccn3)CC2)nc2c1c(=O)n(Cc1ccc(Cl)cc1)c(=O)n2C`, 10 nM; as for `CC1(C)Cc2c(c(N3CCCC3)nc3sc4c(N5CCN(CCO)CC5)ncnc4c23)CO1`, 2560 nM.
To `CC(Sc1nc(-c2ccccc2)cc(C(F)(F)F)n1)C(=O)N1CCCCC1` (stereo not given) belongs 10 nM.
As for `CC(Sc1nc(-c2ccccc2)cc(C(F)(F)F)n1)C(=O)N1CCOCC1` (stereo not given), the figure is 20 nM; as for `Cc1ncc(CN2CCCC(C(=O)Nc3ccc(-c4cccc(F)c4)cc3)C2)s1` (stereo not given), 870 nM; as for `Cc1ccc(OCc2cc(C(=O)N(C)Cc3cnn(-c4ccccc4C)c3)no2)cn1`, 60 nM.
With `COc1ccc(OC)c(CCNC(=O)C2CCN(c3nnc(-n4cccc4)s3)CC2)c1`, the EC50 is 1420 nM.
For the compound `Cc1ccc(Cn2ccc(NC(=O)c3cc4nc(-c5ccco5)cc(C(F)(F)F)n4n3)n2)cc1`, the EC50 is 10 nM.
As for `CN(Cc1ccccc1)S(=O)(=O)c1ccc(NS(=O)(=O)Cc2ccccc2)cc1`, the figure is 50 nM; as for `CSc1nc(SCCO)c2sc3nc(-c4ccco4)c4c(c3c2n1)CC(C)(C)OC4`, 1810 nM; as for `O=C(c1cc2c(=O)n3ccccc3nc2s1)N1CCN(Cc2ccc3c(c2)OCO3)CC1`, 110 nM.
For the compound `CC(Oc1ccc(Cl)cc1Cl)c1nc(-c2ccc(NC(=O)c3ccco3)cc2)no1` (stereo not given), the EC50 is 230 nM.
Turning to `CC(Oc1ccc(Cl)cc1Cl)c1nc(-c2ccc(NC(=O)c3ccccn3)cc2)no1` (stereo not given), the EC50 is 120 nM.
